Measurements from ChEMBL document CHEMBL1201862, “PubChem BioAssay data set” (2004).
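Each compound was tested at five concentrations against cells in 96-well plates for 48 hours. At the GI50, growth is halved.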 The source made the active and inactive calls. Cut-off read from the data, not from the text of the source: active = GI50 up to about 1.1 µM and inactive = higher.

Key:
Assay in all cases: NCI tumour cell line growth inhibition, 48 h
[1] = system: HT-29
[2] = system: SF-268
[3] = system: 786-0
[4] = system: HCT-15
[5] = system: RPMI-8226
[6] = system: CAKI-1
[7] = system: HCC 2998
[8] = system: OVCAR-3
[9] = system: SF-295
[10] = system: HL-60
[11] = system: CCRF-CEM
[12] = system: SNB-19
[13] = system: K562
[14] = system: SN12C
[15] = system: LOX IMVI

SMILES: COC(=O)[C@H]1C2CC[C@@H]3C45C[C@@H](c6ccoc6)O[C@@H]4O[C@@H](O2)C31CCC5C (stereo not given in full)
- GI50 [1]: > 100 µM (inactive)
- GI50 [2]: > 100 µM (inactive)
- GI50 [3]: 91.2 µM (inactive)
- GI50 [4]: 86.3 µM
- GI50 [5]: > 100 µM (inactive)
- GI50 [6]: > 100 µM (inactive)
- GI50 [7]: 95.9 µM (inactive)
- GI50 [8]: > 100 µM (inactive)
- GI50 [9]: 97.5 µM (inactive)
- GI50 [10]: > 100 µM (inactive)
- GI50 [11]: 56.4 µM (inactive)
- GI50 [12]: > 100 µM (inactive)
- GI50 [13]: 32.1 µM (inactive)
- GI50 [14]: > 100 µM (inactive)
- GI50 [15]: > 100 µM (inactive)

SMILES: O=C(Nc1ccc(C(F)(F)F)cc1[N+](=O)[O-])C(=O)C1NC(=S)NC1=O (stereo not given)
- GI50 [1]: > 100 µM (inactive)
- GI50 [2]: > 100 µM (inactive)
- GI50 [3]: > 100 µM (inactive)
- GI50 [4]: > 100 µM
- GI50 [5]: > 100 µM (inactive)
- GI50 [6]: 54.1 µM (inactive)
- GI50 [7]: > 100 µM (inactive)
- GI50 [8]: > 100 µM (inactive)
- GI50 [9]: > 100 µM (inactive)
- GI50 [10]: > 100 µM (inactive)
- GI50 [11]: > 100 µM (inactive)
- GI50 [12]: > 100 µM (inactive)
- GI50 [13]: > 100 µM (inactive)
- GI50 [14]: 2.26 µM (inactive)
- GI50 [15]: > 100 µM (inactive)

SMILES: O=C1c2ccc3c4ccccc4n(Cc4ccccc4)c3c2C(=O)N1c1ccccc1
- GI50 [1]: 16.4 µM (inactive)
- GI50 [2]: 19.9 µM (inactive)
- GI50 [3]: 13.8 µM (inactive)
- GI50 [4]: 10.8 µM
- GI50 [5]: 9.02 µM (inactive)
- GI50 [6]: 12.5 µM (inactive)
- GI50 [7]: 18.3 µM (inactive)
- GI50 [8]: 5.5 µM (inactive)
- GI50 [9]: 14.7 µM (inactive)
- GI50 [10]: 4.51 µM (inactive)
- GI50 [11]: 1.88 µM (inactive)
- GI50 [12]: 20 µM (inactive)
- GI50 [13]: 6.07 µM (inactive)
- GI50 [14]: 16.5 µM (inactive)
- GI50 [15]: 16.2 µM (inactive)

SMILES: COc1cccc(C2=NC(C(C)C)CO2)c1OC (stereo not given)
- GI50 [1]: > 100 µM (inactive)
- GI50 [2]: > 100 µM (inactive)
- GI50 [3]: > 100 µM (inactive)
- GI50 [4]: > 100 µM
- GI50 [5]: > 100 µM (inactive)
- GI50 [6]: > 100 µM (inactive)
- GI50 [7]: > 100 µM (inactive)
- GI50 [8]: > 100 µM (inactive)
- GI50 [9]: > 100 µM (inactive)
- GI50 [10]: > 100 µM (inactive)
- GI50 [11]: > 100 µM (inactive)
- GI50 [12]: > 100 µM (inactive)
- GI50 [13]: > 100 µM (inactive)
- GI50 [14]: > 100 µM (inactive)
- GI50 [15]: > 100 µM (inactive)

SMILES: CN(/N=C/c1ccnc2ccccc12)c1c([N+](=O)[O-])cc([N+](=O)[O-])cc1[N+](=O)[O-]
- GI50 [1]: > 100 µM (inactive)
- GI50 [2]: 61.2 µM (inactive)
- GI50 [3]: > 100 µM (inactive)
- GI50 [4]: 44.5 µM
- GI50 [5]: 26.6 µM (inactive)
- GI50 [6]: 25.1 µM (inactive)
- GI50 [7]: > 100 µM (inactive)
- GI50 [8]: 41.6 µM (inactive)
- GI50 [9]: 76.9 µM (inactive)
- GI50 [10]: 22.4 µM (inactive)
- GI50 [11]: 18.3 µM (inactive)
- GI50 [12]: > 100 µM (inactive)
- GI50 [13]: 30.7 µM (inactive)
- GI50 [14]: > 100 µM (inactive)
- GI50 [15]: 48.2 µM (inactive)

SMILES: C[C@]12CCc3nonc3C1CC[C@@H]1C2CC[C@@]2(C)C1CC[C@@H]2O (stereo not given in full)
- GI50 [1]: > 100 µM (inactive)
- GI50 [2]: > 100 µM (inactive)
- GI50 [3]: > 100 µM (inactive)
- GI50 [4]: > 100 µM
- GI50 [5]: > 100 µM (inactive)
- GI50 [6]: > 100 µM (inactive)
- GI50 [7]: > 100 µM (inactive)
- GI50 [8]: > 100 µM (inactive)
- GI50 [9]: > 100 µM (inactive)
- GI50 [10]: > 100 µM (inactive)
- GI50 [11]: > 100 µM (inactive)
- GI50 [12]: > 100 µM (inactive)
- GI50 [13]: > 100 µM (inactive)
- GI50 [14]: > 100 µM (inactive)
- GI50 [15]: > 100 µM (inactive)

SMILES: C=C1C(=O)OC2/C=C(\C)C(O)/C=C\C(C)(O)CC(OC(=O)/C(C)=C/C)C12 (stereo not given)
- GI50 [1]: 33.1 µM (inactive)
- GI50 [2]: 76.9 µM (inactive)
- GI50 [3]: 20.8 µM (inactive)
- GI50 [4]: 17.2 µM
- GI50 [5]: > 39.5 µM (inactive)
- GI50 [6]: 23.6 µM (inactive)
- GI50 [7]: > 100 µM (inactive)
- GI50 [8]: 9.93 µM (inactive)
- GI50 [9]: > 100 µM (inactive)
- GI50 [10]: 7.91 µM (inactive)
- GI50 [11]: > 32.5 µM (inactive)
- GI50 [12]: > 39.6 µM (inactive)
- GI50 [13]: 9.64 µM (inactive)
- GI50 [14]: 22 µM (inactive)
- GI50 [15]: 16.2 µM (inactive)

SMILES: FC(F)(F)c1nc(Br)[nH]c1C(F)(F)F
- GI50 [1]: > 100 µM (inactive)
- GI50 [2]: > 100 µM (inactive)
- GI50 [3]: > 100 µM (inactive)
- GI50 [4]: > 100 µM
- GI50 [5]: 51.3 µM (inactive)
- GI50 [6]: > 100 µM (inactive)
- GI50 [7]: 49.9 µM (inactive)
- GI50 [8]: 60.4 µM (inactive)
- GI50 [9]: > 100 µM (inactive)
- GI50 [10]: > 100 µM (inactive)
- GI50 [11]: 66.5 µM (inactive)
- GI50 [12]: > 100 µM (inactive)
- GI50 [13]: 43 µM (inactive)
- GI50 [14]: 69 µM (inactive)
- GI50 [15]: > 100 µM (inactive)

SMILES: CCCCCN(CCCCC)C(=O)[C@H](CCC(=O)OCc1ccccc1)NC(=O)c1cc2ccccc2[nH]1
- GI50 [1]: > 100 µM (inactive)
- GI50 [2]: > 100 µM (inactive)
- GI50 [3]: > 100 µM (inactive)
- GI50 [4]: > 100 µM
- GI50 [5]: 0.343 µM (active)
- GI50 [6]: > 100 µM (inactive)
- GI50 [7]: > 100 µM (inactive)
- GI50 [8]: > 100 µM (inactive)
- GI50 [9]: > 100 µM (inactive)
- GI50 [10]: > 100 µM (inactive)
- GI50 [11]: > 100 µM (inactive)
- GI50 [12]: > 100 µM (inactive)
- GI50 [13]: > 100 µM (inactive)
- GI50 [14]: > 100 µM (inactive)
- GI50 [15]: > 100 µM (inactive)
